Our source for the IC50 values is patent US10322191B2, “Targeted conjugates and particles and formulations thereof” (TARVEDA THERAPEUTICS, INC., priority 2014, dated 2019).

pIC50: −log10 of the molar value. Where two headings read alike, the source gives them in different places. Bridge positions count the residues as written; N and C are the ends. Square brackets hold non-standard residues; d marks the D form. Peptide text beside a SMILES is read from it. * marks the point of attachment. NH(CH2)2SS(DM1) = COc1cc2cc(c1Cl)N(C)C(=O)C[C@H](OC(=O)[C@H](C)N(C)C(=O)CCSSCCN*)[C@]1(C)O[C@H]1[C@H](C)[C@@H]1C[C@@](O)(NC(=O)O1)[C@H](OC)/C=C/C=C(\C)C2; X1 = COc1cc2cc(c1Cl)N(C)C(=O)C[C@H](OC(=O)[C@H](C)N(C)C(=O)CCS*)[C@]1(C)O[C@H]1[C@H](C)[C@@H]1C[C@@](O)(NC(=O)O1)[C@H](OC)/C=C/C=C(\C)C2; Mpa = O=C(O)CCS

The assay relates to NCI-H524 (ATCC) human lung cancer cells. Type of assay: cell-based. To be noted: Table 15. As to the method:
Conjugates were assessed in an in vitro assay evaluating inhibition of cell proliferation. NCI-H524 (ATCC) human lung cancer cells were plated in 96 well, V-bottomed plates (Costar) at a concentration of 5,000 cells/well and 24 hours later were treated with compound for 2 hours and further incubated 70 hours. Compound starting dose was 20 μM and three-fold serial dilutions were done for a total of ten points. After 2 hours of treatment, cells were spun down, the drug containing media was removed, and fresh complete medium was added and used to resuspend the cells, which were spun again. After removal of the wash media, the cells were resuspended in complete medium, then transferred into white walled, flat bottomed 96 well plates. […] Proliferation was measured using CellTiter Glo reagent using the standard protocol (Promega) and a Glomax multi+detection system (Promega). Percent proliferation inhibition was calculated using the following formula: % inhibition=(control-treatment)/control*100. Control is defined as vehicle alone. IC50 curves were generated using the nonlinear regression analysis (four parameter) with GraphPad Prism 6.
Conjugates of the present invention were assessed in an in vitro assay evaluating inhibition of cell proliferation. NCI-H524 (ATCC) human lung cancer cells were plated in 96 well, V-bottomed plates (Costar) at a concentration of 5,000 cells/well. 24 hours later, cells were treated with either conjugate for 2 hours and further incubated 70 hours, or for octreotide competition experiments, treated with 100 μM octreotide for 30 min, and then treated with conjugate for 2 hours, and further incubated for 70 hours. Conjugate starting dose was 20 μM and three fold serial dilutions were done for a total of ten points. After 2 hours of treatment, cells were spun down, the drug containing media was removed, and fresh complete medium was added and used to resuspend the cells, which were spun again. After removal of the wash media, the cells were resuspended in complete medium, then transferred into white walled, flat bottomed 96 well plates. […] Proliferation was measured using CellTiter Glo reagent using the standard protocol (Promega) and a Glomax multi+detection system (Promega). Percent proliferation inhibition was calculated using the following formula: % inhibition=(control-treatment)/control*100. Control is defined as vehicle alone. IC50 curves were generated using the nonlinear regression analysis (four parameter) with GraphPad Prism 6.
Conjugates of the present invention were tested for their activity dependence on the somatostatin receptor. Active agent Z in the conjugate was selected from auristatin, carbazitaxel, DM1, doxorubicin, platinum, SN-38 and vinblastine. Active agent Z is connected to octreotide with various linkers. Proliferation IC50 values of the conjugates were measured. Proliferation IC50 values of the conjugates without octreotide competition were also measured. The ratio of IC50 with octreotide competition and IC50 without octreotide competition is an indicator of whether activity is at least partially dependent on bind to the somatostatin receptor.

[1] abbreviates: treated 2 hours, further incubated 70 hours, read-out: H524 IC50.
Setting [2] is: read-out: H524 IC50+ 100 uM octreotide, 100 μM octreotide for 30 min, then conjugate 2 hours, 70 hours incubation.

Broadly, the pIC50 is −log10 of the IC50, conventionally taken in molar units.

On to `COc1cc2cc(c1Cl)N(C)C(=O)C[C@H](OC(=O)[C@H](C)N(C)C(=O)CCSC1CC(=O)N(CCCNC(=O)CC[C@H](NC(=O)[C@@H]3CSSC[C@H](NC(=O)[C@H](N)Cc4ccccc4)C(=O)N[C@@H](Cc4ccc(O)cc4)CN[C@H](Cc4c[nH]c5ccccc45)C(=O)N[C@@H](CCCCN)C(=O)N[C@@H]([C@@H](C)O)C(=O)N3)C(=O)NCCCN3C(=O)CC(SCCC(=O)N(C)[C@@H](C)C(=O)O[C@H]4CC(=O)N(C)c5cc(cc(OC)c5Cl)C/C(C)=C/C=C/[C@@H](OC)[C@@]5(O)C[C@H](OC(=O)N5)[C@@H](C)[C@@H]5O[C@@]45C)C3=O)C1=O)[C@]1(C)O[C@H]1[C@H](C)[C@@H]1C[C@@](O)(NC(=O)O1)[C@H](OC)/C=C/C=C(\C)C2` (stereo partly drawn) [Conjugate 53], for which the pIC50 under setting [1] is 7.38 and the pIC50 under setting [2] was 6.76.
On the same counts, the results for `COc1cc2cc(c1Cl)N(C)C(=O)C[C@H](OC(=O)[C@H](C)N(C)C(=O)CCSSCCNC(=O)[C@@H]1CSSC[C@H](NC(=O)[C@H](N)Cc3ccccc3)C(=O)N[C@@H](Cc3ccc(O)cc3)C(=O)N[C@H](Cc3c[nH]c4ccccc34)C(=O)N[C@@H](CCCCN)C(=O)N[C@@H]([C@@H](C)O)C(=O)N1)[C@]1(C)O[C@H]1[C@H](C)[C@@H]1C[C@@](O)(NC(=O)O1)[C@H](OC)/C=C/C=C(\C)C2` [Conjugate 59] (H-[dF]CY[dW]KTC-{NH(CH2)2SS(DM1)}; disulfide 2-7) are 7.62 and 6.77.
On the same counts, the results for `COc1cc2cc(c1Cl)N(C)C(=O)C[C@H](OC(=O)[C@H](C)N(C)C(=O)CCSSC[C@H](NC(=O)[C@@H]1CSSC[C@H](NC(=O)[C@H](N)Cc3ccccc3)C(=O)N[C@@H](Cc3ccc(O)cc3)C(=O)N[C@H](Cc3c[nH]c4ccccc34)C(=O)N[C@@H](CCCCN)C(=O)N[C@@H]([C@@H](C)O)C(=O)N1)C(=O)O)[C@]1(C)O[C@H]1[C@H](C)[C@@H]1C[C@@](O)(NC(=O)O1)[C@H](OC)/C=C/C=C(\C)C2` [Conjugate 61] are 7.05 and 6.56.
In the same order, the values of `COc1cc2cc(c1Cl)N(C)C(=O)C[C@H](OC(=O)[C@H](C)N(C)C(=O)CCSSC[C@H](NC(=O)[C@@H]1CSSC[C@H](NC(=O)[C@H](N)Cc3ccccc3)C(=O)N[C@@H](Cc3ccc(O)cc3)C(=O)N[C@H](Cc3c[nH]c4ccccc34)C(=O)N[C@@H](CCCCN)C(=O)N[C@@H]([C@@H](C)O)C(=O)N1)C(=O)NC1CCCCC1)[C@]1(C)O[C@H]1[C@H](C)[C@@H]1C[C@@](O)(NC(=O)O1)[C@H](OC)/C=C/C=C(\C)C2` [Conjugate 63] are 7.36 and 6.77.
Take `CCNC(=O)N[C@H](Cc1ccccc1)C(=O)N[C@H]1CSSC[C@@H](C(=O)N[C@H](C(=O)NCCSSCCC(=O)N(C)[C@@H](C)C(=O)O[C@H]2CC(=O)N(C)c3cc(cc(OC)c3Cl)C/C(C)=C/C=C/[C@@H](OC)[C@@]3(O)C[C@H](OC(=O)N3)[C@@H](C)[C@@H]3O[C@@]23C)[C@@H](C)O)NC(=O)[C@H]([C@@H](C)O)NC(=O)[C@H](CCCCN)NC(=O)[C@@H](Cc2c[nH]c3ccccc23)NC(=O)[C@H](Cc2ccc(O)cc2)NC1=O` [Conjugate 65]: the pIC50 was 7.52 under setting [1] and 6.64 under setting [2].
On the same counts, the results for `COc1cc2cc(c1Cl)N(C)C(=O)C[C@H](OC(=O)[C@H](C)N(C)C(=O)CCSSCCC(=O)N[C@H](Cc1ccccc1)C(=O)N[C@H]1CSSC[C@@H](C(=O)N[C@@H](Cc3c[nH]c4ccccc34)C(N)=O)NC(=O)[C@H](C(C)C)NC(=O)[C@H](CCCCN)NC(=O)[C@@H](Cc3c[nH]c4ccccc34)NC(=O)[C@H](Cc3ccc(O)cc3)NC1=O)[C@]1(C)O[C@H]1[C@H](C)[C@@H]1C[C@@](O)(NC(=O)O1)[C@H](OC)/C=C/C=C(\C)C2` [Conjugate 70] ([Mpa](X1)[dF]CY[dW]KVCW-NH2; disulfide 3-8) are 6.50 and 6.38.
